For one compound, increase of temperature and pyrogenic effect results are on record in patent US4220637A (Agence Nationale de Valorisation de la Recherche, priority 1976, dated 1980).

This data set deals with rabbits. Kind of data set: pyrogenic effect test on rabbits (Pharmacopee Francaise, 9th edition, II-235). The data set is classed as in vivo.

With `CC(=O)N[C@H]1C(O)O[C@H](CO)[C@@H](O)[C@@H]1O[C@H](C)C(=O)N[C@@H](C)C(=O)N[C@H](CCC(N)=O)C(N)=O` (stereo partly drawn) [Mur-NAc-L-Ala-D-Glu(NH2)--NH2, diamide of the 2-(2-acetamido-2-deoxy-3-O-D-glucopyranosyl)-D-propionyl-L-alanyl-D-glutamic acid], the increase of temperature result (2 mg/kg, sub-cutaneously and intravenously) was “did not induce any increase of temperature”. In addition, the pyrogenic effect result (Pharmacopee Francaise protocol) is “fully devoid of any pyrogenic effect”.
